Data: patent US5980913A, “Peptides having immunomodulatory activity” (Biochem Pharma, Inc., priority 1994, dated 1999)
Where a SMILES comes first, the peptide text is derived from it.

Tests used:
[1] = test system: spleen cell subsets (cell surface antigens); assay: In vivo/ex vivo immunophenotyping in the spleen, mice treated 4 consecutive days; parameters: species or system C57BL/6 mice
Method: C57BL.backslash.6 mice are treated with 0, 50, 100, 200, and 300 mg/kg of drug (in saline) for 4 consecutive days. Blood is taken by cardiac puncture on day 5, and the lymphocytes are isolated from spleen in the following manner:
The spleen is aseptically removed and mashed by pressing against a steel strainer with a rubber plunger. The cell suspension is separated from the clumps by letting them settle at the bottom of the tube. The cell suspension is then separated on a Lymphocyte M layer and the interface is recovered and resuspended in media.
1. Immunophenotyping (blood and spleen)
Cell immunophenotyping is performed on blood and spleen. The following cell surface antigens are analyzed:
CD4 (T helper/inducer, binds class II-restricted T cells);
CD8 (cytotoxic T cells, CTL adhesion);
MAC-1 (monocyte/macrophage);
NK (natural killer cells);
CD45 (all leukocytes, protein tyrosine phosphatase).

T cells = assay: Activation of T cells by mitogenic proliferation (ConA, PHA); type: cell-based, C57BL/6 mice; details: concentration not given; 0 not defined
Source text: c) Activation of T or B cells by Mitogenic Proliferation
A mitogenic lectin (mitogen) is a glycoprotein which binds and cross-links specific cells surface carbohydrate determinants, and will polyclonally stimulate lymphoid cells. Lymphocyte activation by either antigens or mitogens results in intracellular changes and the subsequent development into a lymphoblast. Mitogenic stimulation of lymphocytes in vitro is believed to mimic the series of events which occur in vivo following their stimulation by specific antigens. PHA and ConA; PWM and LPS mitogens can be used as a measurement of T cell and B cell activity, respectively. Briefly, the spleen mononuclear leukocytes from C57BL/6 mice are incubated in the presence or absence of mitogens with or without candidate drugs. After 72 hours or 5 days, ^3 H-thymidine incorporation is recorded as an indication of cell proliferation.
Lymphocytes were isolated from mice spleen or human blood in accordance to methods well known in the art. 100 μl of cell suspension of 2×10^6 cells/ml was added per well (2x10^5 cells/well) and incubated in the presence of lectin at the following concentrations:
PHA=0.01% to 0.001% final concentration
Cells were incubated for 3 days with PHA or ConA, or 5 days with PWM or LPS. 1 μCi of tritiated thymidine was added to each well for the last 6 hours (or 0.5 μCi for 18 hrs). The cells were harvested in a cell Harvester (Tortech®) and counted in a Beta counter.

NCCCC[C@H](N)C(=O)N[C@@H](CC(N)=O)C(=O)N1CCC[C@H]1C(=O)N[C@@H](Cc1ccc(O)cc1)C(=O)O [PEPTIDE #1, H-Lys-Asn-Pro-Tyr-OH] (H-KNPY-OH)
B cell subset, relative percentage ([1]; 50 mg/kg): 11.60
CD4+ CD8+ cell subset, relative percentage ([1]; 50 mg/kg): 1.10
CD4+ CD8- cell subset, relative percentage ([1]; 50 mg/kg): 38.30
CD4+ CD11+ cell subset, relative percentage ([1]; 50 mg/kg): 0.17
CD4+ CD11- cell subset, relative percentage ([1]; 50 mg/kg): 18.47
CD4+ CD45+ cell subset, relative percentage ([1]; 50 mg/kg): 33.30
CD4+ CD45- cell subset, relative percentage ([1]; 50 mg/kg): 6.10
CD4- CD8+ cell subset, relative percentage ([1]; 50 mg/kg): 16.15
CD4- CD8- cell subset, relative percentage ([1]; 50 mg/kg): 44.45
CD4- CD11+ cell subset, relative percentage ([1]; 50 mg/kg): 1.20
CD4- CD11- cell subset, relative percentage ([1]; 50 mg/kg): 80.17
CD4- CD45+ cell subset, relative percentage ([1]; 50 mg/kg): 58.65
CD4- CD45- cell subset, relative percentage ([1]; 50 mg/kg): 1.95
CD8+ CD45+ cell subset, relative percentage ([1]; 50 mg/kg): 16.90
CD8+ CD45- cell subset, relative percentage ([1]; 50 mg/kg): 0.10
CD8- CD45+ cell subset, relative percentage ([1]; 50 mg/kg): 73.15
CD8- CD45- cell subset, relative percentage ([1]; 50 mg/kg): 9.85
CD45-8 cell subset, relative percentage ([1]; 50 mg/kg): 60.70
CD45- Th1 cell subset, relative percentage ([1]; 50 mg/kg): 39.10
NK+ CD3+ cell subset, relative percentage ([1]; 50 mg/kg): 4.70
NK+ CD3- cell subset, relative percentage ([1]; 50 mg/kg): 7.47
NK- CD3+ cell subset, relative percentage ([1]; 50 mg/kg): 42.80
NK- CD3- cell subset, relative percentage ([1]; 50 mg/kg): 45.10
B cell subset, relative percentage ([1]; 100 mg/kg): 14.97
CD4+ CD8+ cell subset, relative percentage ([1]; 100 mg/kg): 2.40
CD4+ CD8- cell subset, relative percentage ([1]; 100 mg/kg): 32.30
CD4+ CD11+ cell subset, relative percentage ([1]; 100 mg/kg): 0.20
CD4+ CD11- cell subset, relative percentage ([1]; 100 mg/kg): 18.23
CD4+ CD45+ cell subset, relative percentage ([1]; 100 mg/kg): 30.90
CD4+ CD45- cell subset, relative percentage ([1]; 100 mg/kg): 3.80
CD4- CD8+ cell subset, relative percentage ([1]; 100 mg/kg): 12.45
CD4- CD8- cell subset, relative percentage ([1]; 100 mg/kg): 52.85
CD4- CD11+ cell subset, relative percentage ([1]; 100 mg/kg): 1.53
CD4- CD11- cell subset, relative percentage ([1]; 100 mg/kg): 80.07
CD4- CD45+ cell subset, relative percentage ([1]; 100 mg/kg): 61.45
CD4- CD45- cell subset, relative percentage ([1]; 100 mg/kg): 3.85
CD8+ CD45+ cell subset, relative percentage ([1]; 100 mg/kg): 14.25
CD8+ CD45- cell subset, relative percentage ([1]; 100 mg/kg): 0.05
CD8- CD45+ cell subset, relative percentage ([1]; 100 mg/kg): 76.35
CD8- CD45- cell subset, relative percentage ([1]; 100 mg/kg): 9.35
CD45-8 cell subset, relative percentage ([1]; 100 mg/kg): 65.55
CD45- Th1 cell subset, relative percentage ([1]; 100 mg/kg): 34.55
NK+ CD3+ cell subset, relative percentage ([1]; 100 mg/kg): 4.40
NK+ CD3- cell subset, relative percentage ([1]; 100 mg/kg): 7.93
NK- CD3+ cell subset, relative percentage ([1]; 100 mg/kg): 41.50
NK- CD3- cell subset, relative percentage ([1]; 100 mg/kg): 46.20
B cell subset, relative percentage ([1]; 200 mg/kg): 16.33
CD4+ CD8+ cell subset, relative percentage ([1]; 200 mg/kg): 2.27
CD4+ CD8- cell subset, relative percentage ([1]; 200 mg/kg): 29.50
CD4+ CD11+ cell subset, relative percentage ([1]; 200 mg/kg): 0.20
CD4+ CD11- cell subset, relative percentage ([1]; 200 mg/kg): 20.03
CD4+ CD45+ cell subset, relative percentage ([1]; 200 mg/kg): 27.98
CD4+ CD45- cell subset, relative percentage ([1]; 200 mg/kg): 3.77
CD4- CD8+ cell subset, relative percentage ([1]; 200 mg/kg): 12.49
CD4- CD8- cell subset, relative percentage ([1]; 200 mg/kg): 40.94
CD4- CD11+ cell subset, relative percentage ([1]; 200 mg/kg): 1.53
CD4- CD11- cell subset, relative percentage ([1]; 200 mg/kg): 78.27
CD4- CD45+ cell subset, relative percentage ([1]; 200 mg/kg): 43.44
CD4- CD45- cell subset, relative percentage ([1]; 200 mg/kg): 2.31
CD8+ CD45+ cell subset, relative percentage ([1]; 200 mg/kg): 12.36
CD8+ CD45- cell subset, relative percentage ([1]; 200 mg/kg): 0.04
CD8- CD45+ cell subset, relative percentage ([1]; 200 mg/kg): 62.30
CD8- CD45- cell subset, relative percentage ([1]; 200 mg/kg): 7.32
CD45-8 cell subset, relative percentage ([1]; 200 mg/kg): 53.14
CD45- Th1 cell subset, relative percentage ([1]; 200 mg/kg): 31.64
NK+ CD3+ cell subset, relative percentage ([1]; 200 mg/kg): 5.27
NK+ CD3- cell subset, relative percentage ([1]; 200 mg/kg): 8.07
NK- CD3+ cell subset, relative percentage ([1]; 200 mg/kg): 44.33
NK- CD3- cell subset, relative percentage ([1]; 200 mg/kg): 42.33
B cell subset, relative percentage ([1]; 300 mg/kg): 14.60
CD4+ CD8+ cell subset, relative percentage ([1]; 300 mg/kg): 4.33
CD4+ CD8- cell subset, relative percentage ([1]; 300 mg/kg): 34.30
CD4+ CD11+ cell subset, relative percentage ([1]; 300 mg/kg): 0.53
CD4+ CD11- cell subset, relative percentage ([1]; 300 mg/kg): 20.53
CD4+ CD45+ cell subset, relative percentage ([1]; 300 mg/kg): 35.00
CD4+ CD45- cell subset, relative percentage ([1]; 300 mg/kg): 3.67
CD4- CD8+ cell subset, relative percentage ([1]; 300 mg/kg): 16.17
CD4- CD8- cell subset, relative percentage ([1]; 300 mg/kg): 45.20
CD4- CD11+ cell subset, relative percentage ([1]; 300 mg/kg): 2.23
CD4- CD11- cell subset, relative percentage ([1]; 300 mg/kg): 76.67
CD4- CD45+ cell subset, relative percentage ([1]; 300 mg/kg): 57.40
CD4- CD45- cell subset, relative percentage ([1]; 300 mg/kg): 3.97
CD8+ CD45+ cell subset, relative percentage ([1]; 300 mg/kg): 19.77
CD8+ CD45- cell subset, relative percentage ([1]; 300 mg/kg): 0.03
CD8- CD45+ cell subset, relative percentage ([1]; 300 mg/kg): 69.93
CD8- CD45- cell subset, relative percentage ([1]; 300 mg/kg): 10.30
CD45-8 cell subset, relative percentage ([1]; 300 mg/kg): 61.63
CD45- Th1 cell subset, relative percentage ([1]; 300 mg/kg): 38.43
NK+ CD3+ cell subset, relative percentage ([1]; 300 mg/kg): 9.47
NK+ CD3- cell subset, relative percentage ([1]; 300 mg/kg): 10.83
NK- CD3+ cell subset, relative percentage ([1]; 300 mg/kg): 41.10
NK- CD3- cell subset, relative percentage ([1]; 300 mg/kg): 38.63
change of relative percentage of CD8+CD45+ (cytotoxic T cells) subset (in words) ([1]; 200 and 300 mg/kg): significant increase
change of relative percentage of NK+CD3+ (NK cells) subset (in words) ([1]; 200 and 300 mg/kg): significant increase
Activation of T Cells, ConA (T cells): 0
Activation of T Cells, PHA (T cells): 0
